Assay results from article PMC5686155, “Crystal structures of the mitochondrial deacylase Sirtuin 4 reveal isoform-specific acyl recognition and regulation features” (Nature Communications, 2017).
Several values for one entry are separate records, joined by “and”; a condition that tells them apart may be missing. Equal values may be shown once.

Tests used:
hSirt4 [1] = molecular target: T1, hSirt4 (Homo sapiens, UniProt Q9Y6E7); test: HMG-FdL (Fluor-de-Lys-like) de-HMG-ylation assay; format: biochemical; details: HMG-FdL assay, 1 µM hSirt4, 500 µM HMG-FdL substrate, 500 μM NAD+, 37 °C, 20 min; fluorescence; n = 2; NADH corrected through spiking controls
T1 construct: hSirt4(25–314) in pQE30 coding for an N-terminal His6-tag; His6 (N); made in house; host or cells: Escherichia coli CodonPlus(DE3)
T1 sequence (Q9Y6E7 25-314): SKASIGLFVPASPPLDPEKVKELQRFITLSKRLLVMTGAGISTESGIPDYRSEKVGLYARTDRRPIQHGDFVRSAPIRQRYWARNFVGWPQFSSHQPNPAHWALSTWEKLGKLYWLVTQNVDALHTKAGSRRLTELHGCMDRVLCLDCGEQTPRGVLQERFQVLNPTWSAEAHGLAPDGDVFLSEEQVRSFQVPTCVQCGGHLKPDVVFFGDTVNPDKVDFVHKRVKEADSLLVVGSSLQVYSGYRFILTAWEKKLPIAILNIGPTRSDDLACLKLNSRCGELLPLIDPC
Method: As a convenient and complementary, fluorescence-based alternative to the coupled enzymatic assay with HMG-peptides, we established substrate and assay corresponding to the popular “Fluor-de-Lys” (FdL) deacylation assays. […] We then employed the FdL-like Sirt4 assay for studying the effects of NAM and NADH, which are not compatible with the coupled assay. […] After 20 min, developer solution (2 mM NAM and 10 mg mL^−1 trypsin) in assay buffer was added 1:1 and samples were incubated for 45 min at room temperature. Fluorescence was measures using a FluoDia T70 with excitation wavelength 365 nm and emission wavelength 465 nm.

Sirt4 = molecular target: T2, Sirt4 (Homo sapiens, UniProt Q9Y6E7); test: MS-based Sirt4 inhibition assay with HMG-CPS1 substrate; format: biochemical; details: n = 2 (Supplementary Fig. 4b)
T2 construct: hSirt4(25–314) in pQE30 coding for an N-terminal His6-tag; His6 (N); made in house; host or cells: Escherichia coli CodonPlus(DE3)
T2 sequence (Q9Y6E7 25-314): T1 sequence (Q9Y6E7 25-314)
Method: For MS and UV analyzes of deacylation reactions, samples were prepared as described for the coupled continuous assay, stopped by mixing 1:1 with 0.5% TFA after 0 and 60 min, diluted to 20 µM peptide using 0.1% FA, and analyzed by HPLC-separation using a Shimadzu Prominence UFLC (Shimadzu, Duisburg, Germany) coupled to ESI-MS and UV detection. Samples were washed on a Piccolo Proto 200 C4 5 μm 2.5 × 0.5 mm trap column (Higgins Analytical, Mountain View, California) and subsequently subjected to a Jupiter C4 5 μm 300 Å 150 × 1 mm analytical column (Phenomenex, Torrance, California) for reversed phase separation, with 99.9% H2O, 0.1% TFA as buffer A and 99.9% ACN, 0.1% TFA as buffer B. Peptides were eluted over a 20 min gradient from 1 to 55% buffer B, followed by 1 min from 55 to 90% buffer B with 70 µL min^−1 flow-rate. UV-detection was done using a Shimadzu SPD-20A detector at 280 nm. MS analysis was performed by ESI-TOF-MS on an AB Sciex TripleTOF 5600+ mass spectrometer (Sciex, Darmstadt, Germany) with a DuoSpray Ion Source using the following settings: floating voltage of 5500 V and declustering potential of 100 with one TOF experiment summing over four time bins. We detected in a mass range from 300 to 2500 m/z. […]

other sirtuins = details: cited from earlier work
hSirt4 [2] = molecular target: T1, hSirt4; test: Coupled continuous enzymatic assay monitoring NAM release from NAD+ (Sirt4 deacylation); format: biochemical; details: hSirt4 wild-type
Method: The seven mammalian sirtuins vary in their sequence and acyl preferences[16],[19]. […] We therefore asked whether other acyl modifications would yield deacylation efficiencies expected for a physiologically dominant Sirt4 activity.
(§1) The coupled continuous assay was performed as reported. […] Reactions were monitored in microplates at room temperature for 1 h through absorption measurements at 340 nm in a LAMBDAScan plate reader (MWG Biotech, Ebersberg, Germany).

xSirt4 Wild-type = test: Coupled continuous assay, xSirt4 wild-type; format: biochemical, Xenopus tropicalis; details: HMG-CPS1 peptide substrate, n = 2
Method: The coupled continuous assay was performed as reported. Briefly, assays in 20 mM sodium phosphate buffer pH 7.8 contained 5 µM hSirt4 or 3–5 µM xSirt4, 0.05 mg ml^−1 nicotinamidase, 2 U ml^–1 GDH, 3.3 mM a-ketoglutarate, 0.2 mM NADPH, 10% DMSO, and NAD^+ at 2 mM or as indicated, and substrate peptide at 500 µM or as indicated. Reactions were monitored in microplates at room temperature for 1 h through absorption measurements at 340 nm in a LAMBDAScan plate reader (MWG Biotech, Ebersberg, Germany).

xSirt4 Delta 198–203 = test: Coupled continuous assay, xSirt4 variant; format: biochemical, Xenopus tropicalis; details: Sirt4 loop deletion variant (198-203), HMG-CPS1 peptide substrate; n = 2
Method: For xSirt4(32–315) and zSirt4(29–310) eluted from the NiNTA material, the buffer was changed to 50 mM Tris/HCl pH 7.5, 200 mM NaCl, (supplemented with 20% glycerol for xSirt4) in a HiPrep Desalting column and subjected to Senp2-proteolysis for 30 min on ice. The protein was loaded on a HisTrap HP 1 mL column (GE Healthcare) and eluted with 50 mM Tris/HCl pH 7.5, 200 mM NaCl, 30–50 mM imidazole. It was subsequently subjected to gel filtration on a Superdex 75 10/300 GL (xSirt4) or Superdex 200 10/300 GL (zSirt4) column (both GE Healthcare) in 25 mM Tris/HCl pH 7.5, 150 mM NaCl (+20 % glycerol for xSirt4), concentrated in a Microsep concentrator, flash-frozen in liquid nitrogen, and stored at −80 °C. xSirt4 single-site variants were generated using the QuickChange protocol (see Supplementary Table 1 for primer sequences) and verified by DNA sequencing, and the proteins were produced as described for wild-type xSirt4.
as §1

xSirt4 = test: Thermal denaturation shift assay; format: binding, Xenopus tropicalis; details: 3 µM xSirt4, SYPRO orange, 20 to 73 °C; n = 2
Method: Thermal shift assays were performed in 96-well PCR plates using 3 µM xSirt4 (32–315) or 3 µM zSirt4 (29–310) and SYPRO orange (Thermo Fisher, Waltham, MA, USA) covered with 15 µL mineral oil. Heating and fluorescence measurements were performed in a FluoDia T70 with 1 K steps from 20 to 73 °C (excitation: 465 nm, emission: 580 nm). The data were analyzed in GraFit (Erithacus Software Ltd, Horley, UK) by nonlinear fitting using a two state model.

sirtuins = details: cited from earlier work
Source text: All sirtuins share NAD^+ as an essential cosubstrate, but the Sirt4 nucleotide binding site differs from those of other isoforms. The Sirt4-loop tightens the entry of the C-site, where the conserved Asp145 recognizes the NAM moiety of NAD^+ [25], and its tip around Pro200 will have to rearrange slightly to allow productive NAD^+ binding (Supplementary Fig. 3c), consistent with a switch function.

Row | IC50 (hSirt4 [1]) [µM] | IC50 (Sirt4) [µM] | K M (NAD+ titration) (hSirt4 [2]) [µM] | SMILES | IC50 (other sirtuins; other sirtuin isoforms, read-out: IC 50 on other sirtuins) | Ki (other sirtuins; read-out: K i on other sirtuin isoforms) [µM] | K M (NAD+ titration) (xSirt4 Wild-type) [µM] | K M (NAD+ titration) (xSirt4 Delta 198–203) [µM] | Sirt4 stabilization in thermal denaturation shift experiments (xSirt4) | K M(NAD+) range reported for sirtuins (sirtuins) [µM]
1 | 126 ± 12 | 142 ± 54 |  | NC(=O)C1=CN([C@@H]2O[C@H](COP(=O)(O)OP(=O)(O)OC[C@H]3O[C@@H](n4cnc5c(N)ncnc54)[C@H](O)[C@@H]3O)[C@@H](O)[C@H]2O)C=CC1 [NADH] | 1300 to 27900 µM and ≥ 1300 µM | ≥ 700 |  |  |  | 
2 |  |  | 62 ± 14 | NC(=O)c1ccc[n+]([C@@H]2O[C@H](COP(=O)([O-])OP(=O)(O)OC[C@H]3O[C@@H](n4cnc5c(N)ncnc54)[C@H](O)[C@@H]3O)[C@@H](O)[C@H]2O)c1 [NAD^+] |  |  | 70 ± 14 | 66 ± 9 | significant Sirt4 stabilization | 14 to 600
